This experiment deals with T1, aryl hydrocarbon receptor (AhR) (Homo sapiens, UniProt P35869).
T1 construct: The HepG2 CYP1A1-Luc cells do express basal luciferase activity that can be increased via potent AhR agonists or decreased via potent AhR antagonists; endogenous in cells; host or cells: HepG2 (DSMZ # ACC 180) stably carrying a CYP1A1 promoter-firefly luciferase reporter
T1 sequence (P35869 11-848): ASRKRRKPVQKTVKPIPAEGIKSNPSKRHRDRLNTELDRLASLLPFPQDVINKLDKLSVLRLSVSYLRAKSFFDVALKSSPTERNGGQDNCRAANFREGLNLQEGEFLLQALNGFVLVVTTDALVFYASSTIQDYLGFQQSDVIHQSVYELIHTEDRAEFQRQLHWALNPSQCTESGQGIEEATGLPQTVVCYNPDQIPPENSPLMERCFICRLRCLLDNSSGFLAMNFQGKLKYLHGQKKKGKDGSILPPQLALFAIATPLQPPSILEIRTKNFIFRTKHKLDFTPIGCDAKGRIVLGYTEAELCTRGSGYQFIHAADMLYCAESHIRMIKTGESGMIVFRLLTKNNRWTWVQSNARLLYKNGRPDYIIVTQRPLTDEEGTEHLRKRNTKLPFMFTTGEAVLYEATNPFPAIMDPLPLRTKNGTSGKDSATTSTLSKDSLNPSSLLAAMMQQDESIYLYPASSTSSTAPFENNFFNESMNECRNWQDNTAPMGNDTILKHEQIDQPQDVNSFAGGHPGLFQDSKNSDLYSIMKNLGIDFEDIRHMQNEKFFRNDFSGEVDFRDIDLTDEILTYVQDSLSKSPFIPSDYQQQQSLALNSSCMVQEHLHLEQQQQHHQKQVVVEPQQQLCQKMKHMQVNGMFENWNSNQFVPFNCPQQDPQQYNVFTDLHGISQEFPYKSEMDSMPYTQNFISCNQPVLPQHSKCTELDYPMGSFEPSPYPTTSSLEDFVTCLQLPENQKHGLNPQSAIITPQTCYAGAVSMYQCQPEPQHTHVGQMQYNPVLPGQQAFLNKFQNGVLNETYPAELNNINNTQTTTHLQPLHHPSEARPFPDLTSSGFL
Kind of experiment: AhR direct luciferase reporter assay in HepG2 cells (HepG2 CYP1A1-LUC). In kind it is cell-based. Conditions: luciferase activity after 18 hours, no exogenous AhR agonist or 10 nM VAF347, read-out: AhR potency (AhR antagonistic potency, IC50). How it is done: AhR Direct Luciferase Reporter Assay in HepG2 Cells.
A stable cell line (HepG2 CYP1A1-LUC) was used in which part of the promoter region of the human CYP1A1 gene is stably integrated into the genome of human HepG2 hepatocytes (DSZM # ACC 180) in front of a Photinus pyralis Firefly Luciferase gene. […] The resulting vector was linearized with NotI, transfected into HepG2 cells (DSMZ # ACC 180) and stably transfected clones selected with 250 μg/ml Hygromycin B. After repetitive rounds of subcloning and testing for robustly regulated luciferase activity after AhR agonist stimulation, a stable clonal HepG2 CYP1A1-Luc cell line was selected.
The HepG2 CYP1A1-Luc cells do express basal luciferase activity that can be increased via potent AhR agonists or decreased via potent AhR antagonists, added to the growth medium of the cells.
Cells are further cultivated for 18 hours and luciferase activities are determined from extracts of cells in buffers containing D-Luciferine and ATP using a LUMIstar Optima microplate Luminometer from BMG Labtech.

Turning to `Cc1cc2cc(-c3ccccc3C(F)(F)F)[nH]c2cc1NC(=O)c1ncnn1C` [Example 4, 1-METHYL-N-(5-METHYL-2-(2-(TRIFLUOROMETHYL)PHENYL)-1H-INDOL-6-YL)-1H-1,2,4-TRIAZOLE-5-CARBOXAMIDE], the IC50 was less than 100 nM.

For the molecule `Cn1nccc1C(=O)Nc1ccc2cc(-c3ccccc3C(F)(F)F)[nH]c2c1` [2/1, 1-METHYL-N-(2-(2-(TRIFLUOROMETHYL)PHENYL)-1H-INDOL-6-YL)-1H-PYRAZOLE-5-CARBOXAMIDE], the IC50 was less than 100 nM.

With `Cn1ncnc1C(=O)Nc1ccc2cc(-c3ccccc3C(F)(F)F)[nH]c2c1` [2/4, 1-METHYL-N-(2-(2-(TRIFLUOROMETHYL)PHENYL)-1H-INDOL-6-YL)-1H-1,2,4-TRIAZOLE-5-CARBOXAMIDE], the concentration for half-maximal inhibition (IC50) was less than 100 nM.

As to `Cc1ccccc1-c1cc2ccc(NC(=O)c3ccco3)cc2[nH]1` [3/3, N-(2-(O-TOLYL)-1H-INDOL-6-YL)FURAN-2-CARBOXAMIDE], the concentration for half-maximal inhibition (IC50) was less than 100 nM.

Regarding `Cc1ccccc1-c1cc2ccc(NC(=O)c3cccn3C)cc2[nH]1` [3/2, 1-METHYL-N-(2-(O-TOLYL)-1H-INDOL-6-YL)-1H-PYRROLE-2-CARBOXAMIDE], the IC50 was less than 100 nM.

In the case of `Cc1cc2cc(-c3ccccc3C(F)(F)F)[nH]c2cc1NC(=O)c1ccccn1` [4/1, N-(5-METHYL-2-(2-(TRIFLUOROMETHYL)PHENYL)-1H-INDOL-6-YL)PICOLINAMIDE], the IC50 was less than 100 nM.

As to `Cn1ncnc1C(=O)Nc1ccc2cc(-c3cc(Cl)ccc3C(F)(F)F)[nH]c2c1` [6/5], the 50% inhibitory concentration (IC50) was less than 100 nM.

Turning to `Cc1ccccc1-c1cc2ccc(NC(=O)c3ncnn3C)cc2[nH]1` [3/1, 1-METHYL-N-(2-(O-TOLYL)-1H-INDOL-6-YL)-1H-1,2,4-TRIAZOLE-5-CARBOXAMIDE], the IC50 was less than 100 nM.

For `Cn1nccc1C(=O)Nc1ccc2cc(-c3cc(Cl)ccc3C(F)(F)F)[nH]c2c1` [6/6], the IC50 is less than 100 nM.

As for `Cn1ncnc1C(=O)Nc1ccc2cc(-c3cc(F)ccc3C(F)F)[nH]c2c1` [6/3], the IC50 was less than 100 nM.

On to `Cn1nccc1C(=O)Nc1ccc2cc(-c3ccccc3Cl)[nH]c2c1` [Example 2, N-(2-(2-Chlorophenyl)-1H-indol-6-yl)-1-methyl-1H-pyrazole-5-carboxamide], for which the IC50 lay in the range of 100 to 1000 nM.

Take `Cn1nccc1C(=O)Nc1ccc2cc(-c3ccc(Cl)cc3Cl)[nH]c2c1` [2/2, N-(2-(2,4-DICHLOROPHENYL)-1H-INDOL-6-YL)-1-METHYL-1H-PYRAZOLE-5-CARBOXAMIDE]: the IC50 fell in the range of 100 to 1000 nM.

On to `Cn1nccc1C(=O)Nc1ccc2cc(-c3ccccc3F)[nH]c2c1` [1/1, N-(2-(2-FLUOROPHENYL)-1H-INDOL-6-YL)-1-METHYL-1H-PYRAZOLE-5-CARBOXAMIDE], for which the half-inhibitory concentration (IC50) was in the range of 100 to 1000 nM.

For `Cn1nccc1C(=O)Nc1ccc2cc(-c3cc(F)ccc3C(F)F)[nH]c2c1` [6/4], the IC50 was less than 100 nM.

`Cc1ccccc1-c1cc2ccc(NC(=O)c3ccc(O)c(C(N)=O)c3)cc2[nH]1` [3/4, 4-HYDROXY-N^1-(2-(O-TOLYL)-1H-INDOL-6-YL)ISOPHTHALAMIDE]: the IC50 was more than 1000 nM.

Take `Cn1nccc1C(=O)Nc1ccc2cc(-c3cccc(Cl)c3)[nH]c2c1` [1/2, N-(2-(3-CHLOROPHENYL)-1H-INDOL-6-YL)-1-METHYL-1H-PYRAZOLE-5-CARBOXAMIDE]: the IC50 is 100 to 1000 nM.

In the case of `Cn1ncnc1C(=O)Nc1ccc2cc(-c3ccccc3C(F)F)[nH]c2c1` [Example 6, N-(2-(2-(Difluoromethyl)phenyl)-1H-indol-6-yl)-1-methyl-1H-1,2,4-triazole-5-carboxamide], the IC50 is less than 100 nM.

Regarding `Cc1ccccc1-c1cc2ccc(NC(=O)c3ccnn3C(C)C)cc2[nH]1` [2/3, 1-ISOPROPYL-N-(2-(O-TOLYL)-1H-INDOL-6-YL)-1H-PYRAZOLE-5-CARBOXAMIDE], the IC50 is more than 1000 nM.

For `Cc1ccccc1-c1cc2ccc(NC(=O)c3ccccn3)cc2[nH]1` [3/5, N-(2-(O-TOLYL)-1H-INDOL-6-YL)PICOLINAMIDE], the IC50 is less than 100 nM.

In the case of `Cc1ccccc1-c1cc2ccc(NC(=O)c3ccn[nH]3)cc2[nH]1` [Example 3, N-(2-(O-TOLYL)-1H-INDOL-6-YL)-1H-PYRAZOLE-5-CARBOXAMIDE], the 50% inhibitory concentration (IC50) fell in the range of 100 to 1000 nM.

Turning to `Cn1nccc1C(=O)Nc1ccc2cc(-c3ccccc3C(F)F)[nH]c2c1` [6/1], the IC50 was less than 100 nM.

As for `O=C(Nc1ccc2cc(-c3ccccc3C(F)(F)F)[nH]c2c1)c1ccccn1` [2/5, N-(2-(2-(TRIFLUOROMETHYL)PHENYL)-1H-INDOL-6-YL)PICOLINAMIDE], the IC50 was less than 100 nM.

The values are drawn from patent US20200031805A1, “ARYL HYDROCARBON RECEPTOR (AHR) MODULATOR COMPOUNDS” (PHENEX PHARMACEUTICALS AG, priority 2017, published 2020).
